{"source": "patent US10550103B2", "about": "“Dual inhibitors of PARP1 and CDK” (Accutar Biotechnology, priority 2017, dated 2020)", "key": {"HCC1395 cells": {"tested_on": "HCC1395 cells", "experiment": "BRAC1 mutant triple negative breast cancer cell growth inhibition assay (Cell Titer Glo), HCC1395", "type": "cell-based", "procedure": "(§1) HCC1937 cells and HCC1395 cells are both […], triple negative (ER, PR, HER2) breast cancer cell lines. The cells were maintained in RPMI1640 medium (Gibco A10491-01) supplemented with 10% FBS, and 1× Penicillin Streptomycin. The HCC1937 cells (ATCC® CRL-2336™) and HCC1395 cells (ATCC® CRL-2324™), respectively, were plated in 96 dark well plates at 0.4×10^4 cells/well.\n(§2) Cell medium was replaced each day for 4 days.\n(§3) To determine cell viability, the relative cell number was determined by the Cell Titer Glo reagent (Promega) according to the protocol. At each day of the assay, the 96 well plate and reagents were equilibrated at RT for 30 min. 100 μl of Cell Titer Glo reagent was added to each well. The contents of each well were mixed using a pipetter to induce cell lysis. The plate was allowed to incubate at RT for 30 min to stabilize the luminescent signal, and the luminescence was determined by a luminometer (Perkin Elmer EnSpire)."}, "MCF7 cells [1]": {"tested_on": "MCF7 cells", "experiment": "MCF7 breast cancer cell viability assay", "type": "cell-based, human", "details": "FIG. 15A", "procedure": "(§4) MCF7 is a breast cancer cell line isolated from a person. MDA-MB-231 is a cell line is an epithelial, human breast cancer cell line that was established from a pleural effusion of a person with a metastatic mammary adenocarcinomal. Cell assays were performed using increasing concentrations of C3 and cell viability was measured. Olaparib and palbocicilib were also used in the cell assays to compare the efficacy of C3 in decreasing cell viability of these breast cancer lines."}, "HCC1937 cells": {"tested_on": "HCC1937 cells", "experiment": "BRAC1 mutant triple negative breast cancer cell growth inhibition assay (Cell Titer Glo), HCC1937", "type": "cell-based", "procedure": "as §1, §2, §3"}, "MCF7 cells [2]": {"tested_on": "MCF7 cells", "experiment": "MCF7 cell proliferation assay", "type": "cell-based, human", "details": "days 1-4; FIG. 6, 7", "procedure": "A cell proliferation assay was performed with MCF7 cells, which is a human breast cancer adenocarcima cell line which expresses PARP1, to compare the inhibitor effect of C2 (Abemaciclib), C2 in combination with letrozole (1 μM), C3, and C3 in combination with letrozole (1 μM). Cell proliferation results at increasing concentrations of C2 and C3 were measured at day 1 (FIG. 6A), day 2 (FIG. 6B), day 3 (FIG. 6C), and day 4 (FIG. 6D)."}, "[3]": {"experiment": "Pharmacokinetics in female BALB/c mice", "type": "in vivo", "details": "plasma; for MRT last: read-out: MRT(0-t)", "procedure": "Pharmacokinetic parameters of the of C3 were measured after a single intraperitoneal injection (IP) of 10 mg/kg, or oral administration (PO) of 50 mg/kg in female BALB/c mice. Pharmacokinetic parameters measured include: elimination half-life (t1/2), time to reach maximum blood plasma concentration (Tmax); maximum blood plasma concentration (Cmax); area under the blood plasma concentration-time curve from time zero to the last detectable plasma concentration (AUC(0-t)); area under the blood plasma concentration-time curve from time zero to infinity (AUC(0-∞)); the mean residence time of the drug in the body from time zero to the last detectable plasma concentration (MRT(0-t)); apparent volume of distribution during terminal phase (Vz); and apparent total body clearance of the drug from plasma (CL)."}, "MB231 cells": {"tested_on": "MB231 cells", "experiment": "MB231 cell proliferation assay", "type": "cell-based, human", "details": "days 1-4; FIG. 8, 9", "procedure": "A cell proliferation assay was performed with MB231 cells, which is a human breast cancer adenocarcinoma cell line expressing a mutant CDKN2A, treated with C3 or olaparib. Cell proliferation results at increasing concentrations of C3 and olaparib were measured at day 1 (FIG. 8A), day 2 (FIG. 8B), day 3 (FIG. 8C), and day 4 (FIG. 8D)."}, "MCF/E2 xenograft tumor": {"tested_on": "MCF/E2 xenograft tumor", "experiment": "MCF/E2 xenograft tumor mouse model, tumor volume", "type": "in vivo", "details": "50 mg/kg P.O. QD for 2 weeks; FIG. 14A", "procedure": "(§5) A MCF/E2 xenograft tumor mouse model was used to evaluate the efficacy of C3 in the treatment of breast cancer. 50 mg/kg of C3 was administered, P.O., once daily (QD) for 2 weeks. Data was compared to a vehicle control."}, "[4]": {"tested_on": "more than 480 kinase assays (403 non-mutant kinases)", "experiment": "Kinase selectivity, DiscoverX KINOMEscan competition binding", "procedure": "A kinase selectivity assay was performed with C3 using DiscoverX KINOMEscan™ (www.discoverx.com/, which is herein incorporated by reference in its entirety for all purposes). The KINOMEscan platform employs active site-directed competition binding assay to quantitatively measure interactions between test compounds (e.g., C3) and more than 480 kinase assays including clinically relevant mutants, lipid, atypical, and pathogen kinases, plus a growing panel of activation-state specific assays.\nThe data was interpreted using three selectivity score types (e.g., S(35); S(10); and S(1)) in order to provide a broad kinase selectivity picture (e.g., a selectivity score) of C3. The selectivity score was calculated using % Ctrl as a potency threshold (below) and provides a quantitative method of describing compound selectivity to facilitate comparison of different compounds. The three selectivity score types used to interpret the data are summarized below: S=Number of hits/Number of assays S(35)=(number of non-mutant kinases with % Ctrl<35)/(number of non-mutant kinases tested) S(10)=(number of non-mutant kinases with % Ctrl<10)/(number of non-mutant kinases tested) S(1)=(number of non-mutant kinases with % Ctrl<1)/(number of non-mutant kinases tested)"}, "[5]": {"experiment": "MCF/E2 xenograft tumor mouse model, body weight", "type": "in vivo", "details": "50 mg/kg P.O. QD for 2 weeks; FIG. 14B", "procedure": "as §5"}, "PARP1": {"molecular_target": "T1, PARP1 (Homo sapiens, UniProt P09874)", "T1 construct": "purchased TREVIGEN 4690-096-K", "T1 sequence (P09874 whole entry)": "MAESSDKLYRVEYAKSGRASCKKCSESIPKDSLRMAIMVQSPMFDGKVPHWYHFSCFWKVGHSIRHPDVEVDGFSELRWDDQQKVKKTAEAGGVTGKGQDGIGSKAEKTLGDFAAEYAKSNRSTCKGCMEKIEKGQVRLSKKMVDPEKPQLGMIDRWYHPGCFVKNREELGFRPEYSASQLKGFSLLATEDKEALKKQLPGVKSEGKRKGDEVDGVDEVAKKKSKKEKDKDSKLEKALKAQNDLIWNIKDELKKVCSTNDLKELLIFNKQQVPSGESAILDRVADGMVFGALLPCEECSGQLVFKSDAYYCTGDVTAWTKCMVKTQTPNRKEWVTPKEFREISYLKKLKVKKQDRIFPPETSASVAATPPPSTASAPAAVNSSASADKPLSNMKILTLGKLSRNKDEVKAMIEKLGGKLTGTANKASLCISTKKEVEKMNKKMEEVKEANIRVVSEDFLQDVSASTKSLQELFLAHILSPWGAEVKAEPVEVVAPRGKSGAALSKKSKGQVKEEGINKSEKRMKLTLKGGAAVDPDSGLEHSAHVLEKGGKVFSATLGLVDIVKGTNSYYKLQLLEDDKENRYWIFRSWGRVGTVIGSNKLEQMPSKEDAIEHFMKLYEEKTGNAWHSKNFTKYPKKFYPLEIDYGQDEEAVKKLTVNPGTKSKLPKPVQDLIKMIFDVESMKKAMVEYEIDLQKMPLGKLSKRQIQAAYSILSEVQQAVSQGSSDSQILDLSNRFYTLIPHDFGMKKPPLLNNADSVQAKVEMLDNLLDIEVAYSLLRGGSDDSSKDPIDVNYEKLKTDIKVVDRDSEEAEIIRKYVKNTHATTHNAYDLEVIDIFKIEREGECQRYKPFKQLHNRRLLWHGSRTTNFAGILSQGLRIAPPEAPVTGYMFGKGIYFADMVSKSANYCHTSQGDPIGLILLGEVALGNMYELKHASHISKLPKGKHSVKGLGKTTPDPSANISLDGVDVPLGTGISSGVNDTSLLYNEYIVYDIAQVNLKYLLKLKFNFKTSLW", "experiment": "PARP inhibition assay (TREVIGEN kit, NAD fluorescence)", "type": "biochemical", "details": "final PARP concentration 40 nM; inhibition curves FIG. 2A-2D", "procedure": "The PARP inhibition assay was performed using a commercially available PARP inhibition assay kit (TREVIGEN, 4690-096-K).\nA 1× buffer was prepared by diluting 10× buffer with dH2O.\nThe nicotinamide adenine dinucleotide (NAD) standards were prepared by diluting the NAD stock solution with the 1× buffer as provided in Table 2 below.\nPARP1 inhibitors were prepared in 1× buffer at 50× final concentration. 1 μl of PARP inhibitors were added to the 96 well plate.\nPARPminus (×20) and PARPplus (×40) solutions were prepared as provided below in Table 3.\nThe cycling mix(60×) was prepared as provided below in Table 4.\nIn the black 96 well plate provided with the kit, 25 μl of 1× buffer was added to wells A5 and A6. To wells B5 to G6, 25 μl of 2×NAD standards were added. To wells H1, H2, A7 to G12, 25 μl NAD2 μM were added. To wells A5 to H6, 1 μl DMSO were added.\nThe following stock solutions of olaparib and C3 were separately prepared: 500 nM, 2.5 μM, 5 μM, 25 μM, 50 μM, 0.5 mM, and 1 mM. […]\nThe 96 well plate was read with a fluorescent plate reader (544 nm excitation/590 nm emission filters). […]\nThe standards indicate that higher concentrations of NAD correspond to higher fluorescence. Because PARP1 consumes NAD, PARP1 inhibition was determined by fluorescence intensity.\nInhibition curves were prepared based on the fluorescence data. […]"}, "MDA-MB-231 cells": {"tested_on": "MDA-MB-231 cells", "experiment": "MDA-MB-231 breast cancer cell viability assay", "type": "cell-based, human", "details": "increasing concentrations; FIG. 15B", "procedure": "as §4"}, "[6]": {"details": "% Ctrl<1, 403 non-mutant kinases, screening concentration 1000 nM"}, "[7]": {"details": "% Ctrl<10, 403 non-mutant kinases, screening concentration 1000 nM"}, "[8]": {"details": "% Ctrl<35, 403 non-mutant kinases, screening concentration 1000 nM"}}, "note": "Like-named read-outs stand apart in the source and are kept apart here."}
{"smiles": "O=C(c1cc(Cc2n[nH]c(=O)c3ccccc23)ccc1F)N1CCN(C(=O)C2CC2)CC1", "note": "[olaparib, reference compound]", "values": [{"measurement": "viability at 10 µM", "setting": "HCC1395 cells; Homo sapiens, HCC1395, 96 h, day 4, FIG. 10D, read-out: viable HCC1395 cells", "result": "~60", "unit": "%"}, {"measurement": "concentration at which MCF7 cell viability was reduced to 0", "setting": "MCF7 cells [1]", "result": "did not reduce cell viability to 0% at the concentrations tested"}, {"measurement": "viability at 10 µM", "setting": "HCC1937 cells; Homo sapiens, HCC1937, 96 h, day 4, FIG. 11D, read-out: viable HCC1937 cells", "result": "> 80", "unit": "%"}]}
{"smiles": "Cc1nc2c(F)cc(-c3nc(Nc4ccc(N5CCN(C(=O)c6cc(Cc7n[nH]c(=O)c8ccccc78)ccc6F)CC5)cn4)ncc3F)cc2n1C(C)C", "note": "[Compound C3]", "values": [{"measurement": "viable HCC1395 cells", "setting": "HCC1395 cells; 10 μM, day 4, FIG. 10D", "result": "almost no HCC1395 cells were viable"}, {"measurement": "inhibition of MCF7 cell proliferation", "setting": "MCF7 cells [2]", "result": "inhibitor of cell proliferation"}, {"measurement": "AUC(0-t)", "setting": "[3]; mouse, PO 50 mg/kg", "result": 1700, "unit": "ng·h/mL"}, {"measurement": "Cmax", "setting": "[3]; mouse, PO 50 mg/kg", "result": 292, "unit": "ng/mL"}, {"measurement": "Tmax", "setting": "[3]; mouse, PO 50 mg/kg", "result": 4, "unit": "h"}, {"measurement": "MRT last", "setting": "[3]; mouse, PO 50 mg/kg", "result": 3.62, "unit": "h"}, {"measurement": "AUC(0-inf)", "setting": "[3]; mouse, single IP 10 mg/kg", "result": 2670, "unit": "ng·h/mL"}, {"measurement": "AUC(0-t)", "setting": "[3]; mouse, single IP 10 mg/kg", "result": 2520, "unit": "ng·h/mL"}, {"measurement": "Cmax", "setting": "[3]; mouse, single IP 10 mg/kg", "result": 284, "unit": "ng/mL"}, {"measurement": "Tmax", "setting": "[3]; mouse, single IP 10 mg/kg", "result": 0.25, "unit": "h"}, {"measurement": "half-life", "setting": "[3]; mouse, single IP 10 mg/kg", "result": 342, "unit": "min"}, {"measurement": "MRT last", "setting": "[3]; mouse, single IP 10 mg/kg", "result": 6.3, "unit": "h"}, {"measurement": "CL", "setting": "[3]; single IP 10 mg/kg", "result": 62.3432, "unit": "mL/min/kg"}, {"measurement": "Vz", "setting": "[3]; single IP 10 mg/kg", "result": 30758.32, "unit": "mL/kg"}, {"measurement": "inhibition of MB231 cell proliferation", "setting": "MB231 cells", "result": "stronger inhibitor of cell proliferation of MB231 human breast cancer adenocarcinoma cells than olaparib"}, {"measurement": "reduction of MCF7 cell viability (comparison in words)", "setting": "MCF7 cells [1]; increasing concentrations", "result": "reduced cell viability of MCF7 cells at lower concentrations compared to both olaparib and palbocicilib"}, {"measurement": "viable HCC1937 cells", "setting": "HCC1937 cells; 10 μM, day 4, FIG. 11D", "result": "almost no HCC1937 cells were viable"}, {"measurement": "change in tumor volume versus vehicle control", "setting": "MCF/E2 xenograft tumor", "result": "able to limit tumor growth compared to the vehicle control"}, {"measurement": "Number of Hits, S(1)", "setting": "[4]; [6]", "result": 11}, {"measurement": "Selectivity Score S(1)", "setting": "[4]; [6]", "result": 0.027}, {"measurement": "Number of Hits, S(10)", "setting": "[4]; [7]", "result": 50}, {"measurement": "Selectivity Score S(10)", "setting": "[4]; [7]", "result": 0.124}, {"measurement": "Number of Hits, S(35)", "setting": "[4]; [8]", "result": 86}, {"measurement": "Selectivity Score S(35)", "setting": "[4]; [8]", "result": 0.213}, {"measurement": "kinase selectivity (in words)", "setting": "[4]; KINOMEscan, 1000 nM", "result": "relatively selective kinase, with similar kinase selectivity as Abemaciclib"}, {"measurement": "change in body weight versus vehicle control", "setting": "[5]", "result": "does not causes changes in body weight"}, {"measurement": "PARP1 inhibition (comparison in words)", "setting": "PARP1", "result": "superior to C2 (Abemaciclib) and similar to olaparib"}, {"measurement": "reduction of MDA-MB-231 cell viability (comparison in words)", "setting": "MDA-MB-231 cells", "result": "more effective in reducing cell viability of MDA-NIB-231 cell than olaparib and palbocicilib"}]}
